Laboratory results: patent publication US9980945B2, “Benzoisoxazole-substituted compounds as MGLUR4 allosteric potentiators, compositions, and methods of treating neurological dysfunction” (Vanderbilt University, priority 2015, dated 2018)

Target: mGluR4 (UniProt Q14833)
Assay: mGluR4 potentiation assay (EC50 for potentiation at EC20 agonist; fluorometric plate reader, Ca2+ or thallium dye)
Format: cell-based
Conditions: potentiation of mGluR4; species of receptor not given
Method: The disclosed compounds and compositions can be evaluated for their ability to act as a potentiator of metabotropic glutamate receptor activity, in particular mGluR4 activity, by any suitable known methodology known in the art. For example, Chinese Hamster Ovary (CHO) cells transacted with human mGluR4 or HEK cells co-transfected with rat mGluR4 and the G-protein regulated Inwardly Rectifying Potassium channel (GIRK) were plated in clear bottom assay plates for assay in a Hamamatsu FDSS Fluorometric Plate Reader. The cells were loaded with either a Ca2+-sensitive fluorescent dye or the thallium responsive dye and the plates were washed and placed into a suitable kinetic plate reader. For human mGluR4 assays, a fluorescence baseline was established for 3-5 seconds, the disclosed compounds were then added to the cells, and the response in cells was measured. Approximately two and a half minutes later, a concentration of mGluR4 orthosteric agonist (e.g. glutamate or L-AP4) eliciting approximately 20% (EC20) of the maximal agonist response was added to the cells, and the response was measured. Two minutes later, a concentration of mGluR4 agonist (e.g. glutamate or L-AP4) eliciting 80% (EC80) of the maximal agonist response was added to the cells, and the response was measured. For rat mGluR4/GIRK experiments, a baseline was established for approximately five seconds, disclosed compounds were added, and either an EC20 or EC80 concentration of agonist was added approximately two and one half minutes later. Potentiation of the agonist response of mGluR4 by the disclosed compounds was observed as an increase in response to the EC20 concentration of agonist in the presence of compound compared to the response to agonist in the absence of compound. Similarly, antagonism of the agonist response of mGluR4 by the disclosed compounds was observed as a decrease in response to the EC80 concentration of agonist in the presence of compound compared to the response to agonist in the absence of compound.
The above described assay operated in two modes. In the first mode, a range of concentrations of the disclosed compounds are added to cells, followed by a single fixed concentration of agonist. If the compound acts as a potentiator, an EC50 so value for potentiation and a maximum extent of potentiation by the compound at this concentration of agonist is determined by non-linear curve fitting. If the compound acts as a noncompetitive antagonist, an IC50 value is determined by non-linear curve fitting. In the second mode, several fixed concentrations of the disclosed compounds are added to various wells on a plate, followed by a range in concentrations of agonist for each concentration of disclosed compound. The EC50 values for the agonist at each concentration of compound are determined by non-linear curve fitting. A decrease in the EC50 value of the agonist with increasing concentrations of the sample compound (a leftward shift of the agonist concentration-response curve) is an indication of the degree of mGluR4 potentiation at a given concentration of the sample compound. A decrease in the maximal response of the agonist with increasing concentrations of the sample compounds, with or without a rightward shift in agonist potency, is an indication of the degree of noncompetitive antagonism at mGluR4. The second mode also indicates whether the sample compounds also affect the maximum response to mGluR4 to agonists.

CC(C)(C)Cc1noc2cc(Nc3n[nH]c4cc(F)cnc34)cc(F)c12 [Example 151, 3-(2,2-dimethylpropyl)-4-fluoro-N-(6-fluoro-1H-pyrazolo[4,3-b]pyridin-3-yl)-1,2-benzoxazol-6-amine]
EC50: > 10000 nM

O=C(NC(c1noc2cc(Nc3n[nH]c4cccnc34)ccc12)C(F)(F)F)c1nccs1 (centres unmarked) [Example 153, N-[2,2,2-trifluoro-1-[6-(1H-pyrazolo[4,3-b]pyridin-3-ylamino)-1,2-benzoxazol-3-yl]ethyl]thiazole-carboxamide]
EC50: 1390 nM

CC(C)c1noc2cc(Nc3n[nH]c4ncccc34)ccc12 [Example 154, 3-isopropyl-N-(1H-pyrazolo[3,4-b]pyridin-3-yl)-1,2-benzoxazol-6-amine]
EC50: 586 nM

CC(C)c1noc2cc(Nc3n[nH]c4cccnc34)ccc12 [Example 155, 3-isopropyl-N-(1H-pyrazolo[4,3-b]pyridin-3-yl)-1,2-benzoxazol-6-amine]
EC50: 976 nM

CN(Cc1cccnc1)C(=O)Cc1noc2cc(Nc3n[nH]c4cccnc34)ccc12 [Example 157, N-methyl-2-[6-(1H-pyrazolo[4,3-b]pyridin-3-ylamino)-1,2-benzoxazol-3-yl]-N-(3-pyridylmethyl)acetamide]
EC50: 1750 nM

CN(C(=O)Cc1noc2cc(Nc3n[nH]c4cccnc34)ccc12)c1cccnc1 [Example 158, N-methyl-2-[6-(1H-pyrazolo[4,3-b]pyridin-3-ylamino)-1,2-benzoxazol-3-yl]-N-(3-pyridyl)acetamide]
EC50: 1170 nM

CN(Cc1ccncc1)C(=O)Cc1noc2cc(Nc3n[nH]c4cccnc34)ccc12 [Example 160, N-methyl-2-[6-(1H-pyrazolo[4,3-b]pyridin-3-ylamino)-1,2-benzoxazol-3-yl]-N-(4-pyridylmethyl)acetamide]
EC50: 3430 nM

O=C(Cc1noc2cc(Nc3n[nH]c4cccnc34)ccc12)N1CCN(CC(F)(F)F)CC1 [Example 161, 2-[6-(1H-pyrazolo[4,3-b]pyridin-3-ylamino)-1,2-benzoxazol-3-yl]-1-[4-(2,2,2-trifluoroethyl)piperazin-1-yl]ethanone]
EC50: 1870 nM

O=C(Cc1noc2cc(Nc3n[nH]c4cccnc34)ccc12)N1CCCC1c1ccccn1 (centres unmarked) [Example 162]
EC50: > 10000 nM

CC(C)(C)Cc1noc2c(F)c(Nc3n[nH]c4cccnc34)ccc12 [Example 163, 3-(2,2-dimethylpropyl)-7-fluoro-N-(1H-pyrazolo[4,3-b]pyridin-3-yl)-1,2-benzoxazol-6-amine]
EC50: > 30000 nM

CC(C)(C)Cc1noc2c(F)c(Nc3n[nH]c4nccnc34)ccc12 [Example 164, 3-(2,2-dimethylpropyl)-7-fluoro-N-(1H-pyrazolo[3,4-b]pyrazin-3-yl)-1,2-benzoxazol-6-amine]
EC50: > 30000 nM

CC(c1ccccn1)N(C)C(=O)Cc1noc2cc(Nc3n[nH]c4cccnc34)ccc12 (centres unmarked) [Example 165, N-methyl-2-[6-(1H-pyrazolo[4,3-b]pyridin-3-ylamino)-1,2-benzoxazol-3-yl]-N-[1-(2-pyridyl)ethyl]acetamide]
EC50: 2300 nM

COc1ncc(Cc2noc3cc(Nc4n[nH]c5cccnc45)ccc23)cn1 [Example 166, 3-[(2-methoxypyrimidin-5-yl)methyl]-N-(1H-pyrazolo[4,3-b]pyridin-3-yl)-1,2-benzoxazol-6-amine]
EC50: 387 nM

CC(C)(C)Cc1noc2cc(Nc3n[nH]c4cccnc34)c(F)cc12 [Example 167, 3-(2,2-dimethylpropyl)-5-fluoro-N-(1H-pyrazolo[4,3-b]pyridin-3-yl)-1,2-benzoxazol-6-amine]
EC50: > 30000 nM

c1cncc(OCc2noc3cc(Nc4n[nH]c5cccnc45)ccc23)c1 [Example 169, N-(1H-pyrazolo[4,3-b]pyridin-3-yl)-3-(3-pyridyloxymethyl)-1,2-benzoxazol-6-amine]
EC50: > 30000 nM

CC(C)(C)Cc1noc2cc(Nc3n[nH]c4cccnc34)cnc12 [Example 171, 3-(2,2-dimethylpropyl)-N-(1H-pyrazolo[4,3-b]pyridin-3-yl)isoxazolo[4,5-b]pyridin-6-amine]
EC50: 801 nM

Cc1ccc(OCc2noc3cc(Nc4n[nH]c5cccnc45)ccc23)cn1 [Example 175, 3-[(6-methyl-3-pyridyl)oxymethyl]-N-(1H-pyrazolo[4,3-b]pyridin-3-yl)-1,2-benzoxazol-6-amine]
EC50: 588 nM

Fc1cncc(OCc2noc3cc(Nc4n[nH]c5cccnc45)ccc23)c1 [Example 176, 3-[(5-fluoro-3-pyridyl)oxymethyl]-N-(1H-pyrazolo[4,3-b]pyridin-3-yl)-1,2-benzoxazol-6-amine]
EC50: 767 nM

FCCc1noc2cc(Nc3n[nH]c4cccnc34)ccc12 [Example 177, 3-(2-fluoroethyl)-N-(1H-pyrazolo[4,3-b]pyridin-3-yl)-1,2-benzoxazol-6-amine]
EC50: 890 nM

CC(c1noc2cc(Nc3n[nH]c4cccnc34)ccc12)C(F)F (centres unmarked) [Example 178, 3-(2,2-difluoro-1-methyl-ethyl)-N-(1H-pyrazolo[4,3-b]pyridin-3-yl)-1,2-benzoxazol-6-amine]
EC50: 1710 nM

CCC(F)(F)c1noc2cc(Nc3n[nH]c4cccnc34)ccc12 [Example 179, 3-(1,1-difluoropropyl)-N-(1H-pyrazolo[4,3-b]pyridin-3-yl)-1,2-benzoxazol-6-amine]
EC50: 1990 nM

CCCCNC(c1noc2cc(Nc3n[nH]c4cccnc34)ccc12)C(F)(F)F (centres unmarked) [Example 180, 3-[1-(butylamino)-2,2,2-trifluoro-ethyl]-N-(1H-pyrazolo[4,3-b]pyridin-3-yl)-1,2-benzoxazol-6-amine; 2,2,2-trifluoroacetic acid]
EC50: 810 nM

CC(C)(C)CNC(c1noc2cc(Nc3n[nH]c4cccnc34)ccc12)C(F)(F)F (centres unmarked) [Example 181, 3-[1-(2,2-dimethylpropylamino)-2,2,2-trifluoro-ethyl]-N-(1H-pyrazolo[4,3-b]pyridin-3-yl)-1,2-benzoxazol-6-amine; 2,2,2-trifluoroacetic acid]
EC50: 1500 nM
